Assay: xn = mol fraction of the nth substance listed
Details: 101 kPa

[Cl][Al]([Cl])[Cl] + CCCC[n+]1ccn(C)c1.[Cl-]
Details | electrical conductivity [S/m] | viscosity [mPa·s]
293.15 K, x1 = 0.5 | – | 41.63
293.15 K, x1 = 0.5238 | – | 38.28
293.15 K, x1 = 0.545 | – | 35.03
293.15 K, x1 = 0.5454 | – | 34.99
293.15 K, x1 = 0.5653 | – | 32.26
293.15 K, x1 = 0.583 | – | 30.37
293.15 K, x1 = 0.5834 | – | 30.34
293.15 K, x1 = 0.6001 | – | 28.34
293.15 K, x1 = 0.615 | – | 26.91
293.15 K, x1 = 0.6154 | – | 26.89
293.15 K, x1 = 0.6296 | – | 25.31
293.15 K, x1 = 0.6429 | – | 24.35
293.15 K, x1 = 0.6551 | – | 23.44
293.15 K, x1 = 0.6667 | – | 22.54
298.15 K, x1 = 0.583 | 0.947 | 25.24
298.15 K, x1 = 0.615 | 0.931 | 22.59
298.15 K, x1 = 0.643 | 0.919 | 20.62
298.15 K, x1 = 0.667 | 0.912 | 19.42
303.15 K, x1 = 0.5 | – | 28.33
303.15 K, x1 = 0.545 | 1.14 | 24.35
303.15 K, x1 = 0.5454 | – | 24.32
303.15 K, x1 = 0.583 | 1.1 | 21.38
303.15 K, x1 = 0.5834 | – | 21.36
303.15 K, x1 = 0.6001 | – | 20.2
303.15 K, x1 = 0.615 | 1.07 | 19.34
303.15 K, x1 = 0.6154 | – | 19.33
303.15 K, x1 = 0.6296 | – | 18.29
303.15 K, x1 = 0.6551 | – | 17.1
303.15 K, x1 = 0.6667 | – | 16.73
308.15 K, x1 = 0.545 | 1.32 | 20.84
308.15 K, x1 = 0.583 | 1.26 | 18.31
308.15 K, x1 = 0.643 | 1.21 | 15.39
308.15 K, x1 = 0.667 | 1.2 | 14.59
313.15 K, x1 = 0.5 | – | 20.76
313.15 K, x1 = 0.5238 | – | 19.48
313.15 K, x1 = 0.545 | 1.51 | 18.1
313.15 K, x1 = 0.5653 | – | 16.92
313.15 K, x1 = 0.583 | 1.44 | 16.03
313.15 K, x1 = 0.5834 | – | 16.01
313.15 K, x1 = 0.6001 | – | 15.28
313.15 K, x1 = 0.615 | 1.39 | 14.61
313.15 K, x1 = 0.6296 | – | 13.96
313.15 K, x1 = 0.6429 | – | 13.53
313.15 K, x1 = 0.643 | 1.36 | 13.54
313.15 K, x1 = 0.6551 | – | 13.12
313.15 K, x1 = 0.6667 | – | 12.87
313.15 K, x1 = 0.667 | 1.34 | 12.87
318.15 K, x1 = 0.545 | 1.71 | 15.92
318.15 K, x1 = 0.583 | 1.63 | 14.15
318.15 K, x1 = 0.615 | 1.57 | 12.78
318.15 K, x1 = 0.643 | 1.52 | 12.04
323.15 K, x1 = 0.5238 | – | 15.16
323.15 K, x1 = 0.545 | 1.93 | 14.15
323.15 K, x1 = 0.5653 | – | 13.29
323.15 K, x1 = 0.583 | 1.83 | 12.61
323.15 K, x1 = 0.5834 | – | 12.6
323.15 K, x1 = 0.6001 | – | 12.09
323.15 K, x1 = 0.615 | 1.76 | 11.56
323.15 K, x1 = 0.6154 | – | 11.55
323.15 K, x1 = 0.6429 | – | 10.78
323.15 K, x1 = 0.643 | 1.69 | 10.8
323.15 K, x1 = 0.6551 | – | 10.48
323.15 K, x1 = 0.6667 | – | 10.17
323.15 K, x1 = 0.667 | 1.66 | 10.17
328.15 K, x1 = 0.545 | 2.15 | 12.7
328.15 K, x1 = 0.583 | 2.04 | 11.34
328.15 K, x1 = 0.615 | 1.95 | 10.45
328.15 K, x1 = 0.667 | 1.83 | 9.05
333.15 K, x1 = 0.5 | – | 12.95
333.15 K, x1 = 0.545 | 2.39 | 11.49
333.15 K, x1 = 0.5454 | – | 11.47
333.15 K, x1 = 0.5653 | – | 10.83
333.15 K, x1 = 0.583 | 2.26 | 10.29
333.15 K, x1 = 0.5834 | – | 10.28
333.15 K, x1 = 0.6154 | – | 9.49
333.15 K, x1 = 0.6429 | – | 8.88
333.15 K, x1 = 0.643 | 2.07 | 8.88
333.15 K, x1 = 0.6551 | – | 8.63
333.15 K, x1 = 0.6667 | – | 8.23
333.15 K, x1 = 0.667 | 2.01 | 8.23
338.15 K, x1 = 0.545 | 2.63 | 10.48
338.15 K, x1 = 0.583 | 2.49 | 9.4
338.15 K, x1 = 0.615 | 2.38 | 8.69
338.15 K, x1 = 0.643 | 2.28 | 8.14
338.15 K, x1 = 0.667 | 2.2 | 7.43
343.15 K, x1 = 0.5 | – | 10.78
343.15 K, x1 = 0.5238 | – | 10.26
343.15 K, x1 = 0.545 | 2.88 | 9.63
343.15 K, x1 = 0.5653 | – | 9.09
343.15 K, x1 = 0.583 | 2.73 | 8.64
343.15 K, x1 = 0.6001 | – | 8.34
343.15 K, x1 = 0.615 | 2.6 | 8.01
343.15 K, x1 = 0.6154 | – | 8.01
343.15 K, x1 = 0.6296 | – | 7.73
343.15 K, x1 = 0.643 | 2.5 | 7.5
343.15 K, x1 = 0.6551 | – | 7.209
343.15 K, x1 = 0.6667 | – | 6.824
343.15 K, x1 = 0.667 | 2.4 | 6.824

Cn1cc[nH+]c1.[Cl-] + Cl[Al](Cl)Cl
Details | electrical conductivity, x2 = 0.643 [S/m] | electrical conductivity, x2 = 0.667 [S/m] | viscosity, x2 = 0.643 [mPa·s] | viscosity, x2 = 0.667 [mPa·s]
293.15 K | – | – | 78.3 | 50.8
298.15 K | 0.456 | 0.601 | 59.41 | 40.23
303.15 K | 0.553 | – | 46.88 | –
308.15 K | 0.661 | 0.827 | 38.17 | 27.36
313.15 K | – | 0.961 | – | 23.28
318.15 K | 0.909 | 1.1 | 27.17 | 20.13
323.15 K | 1.05 | 1.25 | 23.58 | 17.66
328.15 K | 1.2 | 1.4 | 20.75 | 15.67
333.15 K | 1.36 | 1.56 | 18.5 | 14.06
338.15 K | 1.53 | 1.74 | 16.67 | 12.72
343.15 K | 1.7 | 1.92 | 15.15 | 11.61

— a compilation of properties of binary mixtures (doi:10.1021/je3004904)
